Patent EP4166560A1, “TRI-SUBSTITUTED TETRAHYDROFURANS AND USE THEREOF” (Consejo Superior de Investigaciones Cientificas, priority 2021, dated 2023)
Where “and” joins values, the source holds several entries; their conditions need not be identical. Identical values can stand only once. Entries after “also recorded” stand apart in the source; their conditions may differ. Numbered stars: 1 amine (or outer) side, 2 acyl side, 3 side chain; on linkers, the order of the positions; unused ones are H or OH. Bridge positions count the residues as written; N and C are the ends. Square brackets hold non-standard residues; d marks the D form. Peptide text beside a SMILES is read from it. * marks the point of attachment. X1 = CC[C@H](C)[C@@H](N[*:1])[C@@H](O)CC(=O)O[C@H](C(=O)[C@H](C)C(=O)[*:2])C(C)C; NMeY = CN[C@@H](Cc1ccc(O)cc1)C(=O)O; dNMeL = CN[C@H](CC(C)C)C(=O)O; Pyruvoyl = CC(=O)C(=O)*

Legend:
TGEV [1] = experiment: Quantitation of TGEV-induced cell death in ST cells by real-time automated microscopy (Cytotox); assay type: cell-based, transmissible gastroenteritis virus (TGEV); conditions: for activity against TGEV (reversion of TGEV-induced cell death): MOI 0.01, 48 h, result in words; for EC50: read-out: EC50 on TGEV-induced cell death; for bottom plateau, dead cells: TGEV MOI 0.01, 48 h, dose-response fit
SARS-CoV-2 [2] = conditions: White et al. 2021; result in words; cited from earlier work
TGEV [3] = experiment: TGEV viral titration by plaque assay in ST cells; assay type: cell-based, transmissible gastroenteritis virus (TGEV)
Procedure: ST cells were inoculated with TGEV at a MOI of 0.01 infectious particles per cell and, after 24 h of incubation under standard culture conditions, the culture medium was subjected to the plaque assay, which determines the number of viral infectious particles present per volume unit (viral titer). A range of SPL-0 concentrations was tested in order to obtain a dose-response curve. The TGEV titer in the harvested medium decreased as the SPL-0 dose increased (Figure 6).

TGEV [4] = experiment: TGEV RNA quantitation by RT-qPCR in ST cells; assay type: cell-based, transmissible gastroenteritis virus (TGEV)
Procedure: ST cells were inoculated with TGEV at a MOI of 0.01 infectious particles per cell and, after 24 h of incubation under standard culture conditions, total RNA was extracted and TGEV RNA was quantified by RT-qPCR. A range of SPL-0 concentrations was tested in order to obtain a dose-response curve. The amount of TGEV RNA decreased as the SPL-0 dose increased (Figure 7).

MHV = MHV RNA quantitation by RT-qPCR in CCL9.1 cells; assay type: cell-based, murine hepatitis virus (MHV)
OC43 = OC43 RNA quantitation by RT-qPCR in BHK-21 cells; assay type: cell-based, human coronavirus OC43
SARS-CoV-2 [5] = experiment: SARS-CoV-2 infection quantified by immunofluorescence (flow cytometry) in VeroE6 cells; assay type: cell-based
Procedure: (§1) To determine the activity of SPL-0 against SARS-CoV-2, a dose-response assay was performed in the range of 0.2 µM to 50 µM using VeroE6 kidney cells from African green monkey (Cercopithecus aethiops). Cell cultures were inoculated with SARS-CoV-2 at an MOI of 0.01 infectious particles per cell and analyzed after 48 h. The percentage of infected cells was obtained by flow cytometry using a monoclonal antibody against the virus spike protein S as well as a fluorescently labelled secondary antibody (immunofluorescence). The percentage of infected cells decreased as the SPL-0 increased (Figure 8a). […] In addition, for each dose, cell viability assays were performed in the absence of virus. For this, the MTT assay, a standard procedure for determining cell metabolic activity, was used.

SARS-CoV-2 [6] = experiment: SARS-CoV-2 infection quantified by immunofluorescence (flow cytometry) in A549 cells; assay type: cell-based
Procedure: as §1, with “The” for “To determine the”, “SARS-CoV-2 was determined in A549 human lung cells, which provide a biologically relevant model, since that lungs are a primary target of SARS-CoV-2. For this,” for “SARS-CoV-2,”, “µM.” for “µM using VeroE6 kidney cells from African green monkey (Cercopithecus aethiops).”, “72” for “48”, “9a).” for “8a).”, “assay” for “assay, a standard procedure for determining cell metabolic activity,”

CVB3 = CVB3 viral titration by plaque assay in HeLa cells; assay type: cell-based, coxsackievirus B3 (CVB3)
Procedure: CVB3 belongs to the picornavirus family. […] Coronaviruses and picornaviruses share certain broad features. Both are plus-strand RNA viruses. However, they are otherwise largely unrelated virus groups. The effect of SPL-0 on CVB3 infection was determined in human HeLa cells. HeLa cells were inoculated with CVB3 at a MOI of 0.01 infectious particles per cell and, after 24 h of incubation under standard culture conditions, the medium was subjected to the plaque assay, which determines the number of viral infectious particles present per volume unit (viral titer). A range of SPL-0 concentrations was to obtain a dose-response curve. The CVB3 titer in the harvested medium decreased as the SPL-0 dose increased (Figure 10). […] Therefore, the antiviral action of SPL-0 extends beyond coronaviruses.

swine testis (ST) cells = conditions: dose range 2-100 µM
VeroE6 kidney cells = conditions: MTT, 0.2 µM to 50 µM
A549 human lung cells = conditions: MTT, 0.2 µM to 50 µM
in vitro [7] = conditions: pig, st cells
in vitro [8] = conditions: african green monkey, veroe6 cells
in vitro [9] = conditions: human, a549 cells
[10] = Alphacoronavirus 1, ST cells, MOI 0.01, 48 h after viral inoculation
[11] = relative to untreated control, dose-response fit

C[C@@H]1O[C@@H](Cc2ccccc2)CC1[Si](C)(C)C (some centres unmarked) [SPL-5]
activity against TGEV (reversion of TGEV-induced cell death) (TGEV [1]; ST cells): did not revert TGEV-induced cell death; also recorded: Inactive

C[C@H]1OC[C@@H](c2ccccc2)[C@H]1[Si](c1ccccc1)(c1ccccc1)c1ccccc1 [SPL-4]
EC50 (TGEV [1]; [10]): 15.8 µM
activity against TGEV (reversion of TGEV-induced cell death) (TGEV [1]; ST cells): partially reverts TGEV-induced cell death; also recorded: Active
bottom plateau, dead cells (TGEV [1]; ST cells): 11.4%

CC(C)C[C@H]1C[C@@H]([Si](c2ccccc2)(c2ccccc2)c2ccccc2)[C@H](CCCCl)O1 [SPL-6]
EC50 (TGEV [1]; [10]): 30.5 µM
activity against TGEV (reversion of TGEV-induced cell death) (TGEV [1]; ST cells): partially reverts TGEV-induced cell death; also recorded: Active
bottom plateau, dead cells (TGEV [1]; ST cells): 14.8%

CC[C@H](C)[C@H]1NC(=O)[C@@H](NC(=O)[C@@H](CC(C)C)N(C)C(=O)[C@@H]2CCCN2C(=O)C(C)=O)[C@@H](C)OC(=O)[C@H](Cc2ccc(OC)cc2)N(C)C(=O)[C@@H]2CCCN2C(=O)[C@H](CC(C)C)NC(=O)[C@@H](C)C(=O)[C@H](C(C)C)OC(=O)C[C@@H]1O [Aplidin, plitidepsin] (Pyruvoyl-P[dNMeL]T[X1]LP[NMeY](Me); ester 3-C)
in vitro activity against SARS-CoV-2 (SARS-CoV-2 [2]): potent in vitro activity

CCCCCCCCCC[C@H]1CC([Si](c2ccccc2)(c2ccccc2)c2ccccc2)[C@H](C)O1 (stereo partly drawn) [SPL-1, 2,5-trans-(5-decyl-2-methyltetrahydrofuran-3-yl)triphenylsilane]
activity against TGEV (reversion of TGEV-induced cell death) (TGEV [1]; ST cells): did not revert TGEV-induced cell death; also recorded: Inactive

C[C@@H]1O[C@@H](Cc2ccccc2)CC1[Si](c1ccccc1)(c1ccccc1)c1ccccc1 (some centres unmarked) [SPL-0]
EC50 (TGEV [1]; Alphacoronavirus 1, 48 h): 13.1 µM
activity against TGEV (reversion of TGEV-induced cell death) (TGEV [1]; ST cells): partially reverts TGEV-induced cell death; also recorded: Active
bottom plateau, dead cells (TGEV [1]; ST cells): 16.1%
EC50 (TGEV [3]; Alphacoronavirus 1, viral titration (plaque assay), ST cells, MOI 0.01, 24 h, read-out: EC50 against TGEV): 15.6 µM
bottom plateau, estimated viral titer (TGEV [3]; [11]): 0%
EC50 (TGEV [4]; Alphacoronavirus 1, RT-qPCR, ST cells, MOI 0.01, 24 h, read-out: EC50 against TGEV): 4.35 µM
bottom plateau, viral RNA (TGEV [4]; [11]): 0%
amount of MHV RNA, % of the amount obtained in control cultures receiving no drug (MHV; 20 µM, MOI 0.01, 24 h): 17.0 ± 2.4%
EC50 (MHV; Murine coronavirus, RT-qPCR, inferred from single dose 20 µM, read-out: EC50 against MHV): < 20 µM
amount of OC43 RNA, % of the amount obtained in control cultures receiving no drug (OC43; 20 µM, MOI 0.01, 4 days): 4.16 ± 0.95%
EC50 (OC43; Betacoronavirus 1, OC43, RT-qPCR, inferred from single dose 20 µM, read-out: EC50 against OC43): < 20 µM
EC50 (SARS-CoV-2 [5]; Severe acute respiratory syndrome coronavirus 2, Vero C1008, immunofluorescence, MOI 0.01, 48 h, read-out: EC50 against SARS-CoV-2 in VeroE6 cells): 27.5 µM
bottom plateau, infected cells (SARS-CoV-2 [5]; VeroE6 cells, dose-response fit): 1.6%
estimated bottom plateau, infected cells (SARS-CoV-2 [6]; A549 cells, dose-response fit): -0.37%
EC50 (SARS-CoV-2 [6]; Severe acute respiratory syndrome coronavirus 2, A549, immunofluorescence, MOI 0.01, 72 h, read-out: EC50 against SARS-CoV-2 in A549 cells): 12.9 µM
EC50 (CVB3; Enterovirus B, CVB3, viral titration (plaque assay), HeLa cells, MOI 0.01, 24 h, read-out: EC50 against CVB3): 2.95 µM
bottom plateau, estimated viral titer (CVB3; [11]): 0%
percentage of dead cells at 48 h (swine testis (ST) cells; ST cell cultures not inoculated with TGEV): < 12% and 2.5-12.0%
cytotoxic effects (swine testis (ST) cells; ST cells, no virus, result in words): no detectable cytotoxic effects
percentage of viable cells at 48 h (VeroE6 kidney cells; uninfected VeroE6 cells): > 85% and 85.0-93.3%
cytotoxic effects (VeroE6 kidney cells; VeroE6 cells, result in words): no cytotoxic effects
cytotoxic effects (A549 human lung cells; A549 cells, result in words): no cytotoxic effects
percentage of viable cells at 48 h (A549 human lung cells; uninfected A549 cells): > 89% and 89.0-100%
CC50 at 48 h (in vitro [7]): > 100 µM
CC50 at 48 h (in vitro [8]): > 50 µM
CC50 at 48 h (in vitro [9]): > 50 µM
